By Ki is commonly meant the dissociation constant of the complex between target and ligand, obtained from inhibition or displacement. In general, IC50 refers to the concentration needed to halve the response being measured. A high value points to lower potency.

Data on two compounds can be found in ChEMBL document CHEMBL1134161, “Stereospecific synthesis of (2S)-2-methyl-3-(2',6'-dimethyl-4'-hydroxyphenyl)-propionic acid (Mdp) and its incorporation into an opioid peptide” (Bioorg Med Chem Lett, 2001).

Experiment [1] deals with Kappa-type opioid receptor (Homo sapiens, UniProt P41145). Briefly: Tested for binding affinity towards Opioid receptor kappa 1.
Chain of Kappa-type opioid receptor (P41145 whole entry): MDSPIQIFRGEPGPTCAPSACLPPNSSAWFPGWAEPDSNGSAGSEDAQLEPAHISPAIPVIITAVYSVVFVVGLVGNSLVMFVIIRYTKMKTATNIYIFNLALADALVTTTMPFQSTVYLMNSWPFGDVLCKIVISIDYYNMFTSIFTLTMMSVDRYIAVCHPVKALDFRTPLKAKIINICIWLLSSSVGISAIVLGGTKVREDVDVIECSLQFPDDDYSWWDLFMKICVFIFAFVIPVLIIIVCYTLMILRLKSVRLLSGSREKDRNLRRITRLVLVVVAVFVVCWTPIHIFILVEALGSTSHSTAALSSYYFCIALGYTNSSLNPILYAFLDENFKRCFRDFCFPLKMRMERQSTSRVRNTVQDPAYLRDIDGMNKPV
Experiment [2] is filed under the species Cavia porcellus. Briefly: In vitro inhibition of electrically evoked contractions of guinea pig ileum(GPI). Format: functional.
The species named for experiment [3] is Mus musculus. Briefly: In vitro inhibition of electrically evoked contractions of mouse vas deferens(MVD). Format: functional, organism-based.
For experiment [4], the species on record is Cavia porcellus. Kind of experiment: Tested for antagonistic activity against Mu agonist TAPP in the GPI assay. The experiment is classed as functional.
Experiment [5] is filed under the species Mus musculus. Briefly: Tested for antagonistic activity against Delta agonist DPDPE in the MVD assay. The experiment is classed as functional.

SMILES strings stand for the structures. Peptide text beside a SMILES is read from it. * marks the point of attachment. X1 = Cc1cc(O)cc(C)c1C[C@H](C)C(=O)*

In the case of `Cc1cc(O)cc(C)c1C[C@H](N)C(=O)N[C@@H](C)C(=O)NCC(=O)N[C@@H](Cc1ccccc1)C(=O)N[C@@H](CC(C)C)C(N)=O`, the Ki in experiment [1] is greater than 10000 nM. Besides, the figures for the IC50 in the experiment filed under Cavia porcellus [2] and in the experiment listed under Mus musculus [3] were 0.586 nM and 0.212 nM, respectively.

Compound `Cc1cc(O)cc(C)c1C[C@H](C)C(=O)N[C@@H](C)C(=O)NCC(=O)N[C@@H](Cc1ccccc1)C(=O)N[C@@H](CC(C)C)C(N)=O` (X1-AGFL-NH2) displayed an inhibitory constant (Ki) in experiment [1] greater than 10000 nM. The values for the Ke in the experiment listed under Cavia porcellus [4] and in the experiment listed under Mus musculus [5] were 154 nM and 28.1 nM, respectively.
